We go through 3 molecules from patent publication US8993256B2, “Fusion proteins and polynucleotide constructs to measure protein turn-over” (priority 2006, dated 2015).

For test [1], the target named is HSV-TimeSTAMPt-HA-dCaMKII (Hepatitis C virus genotype 1a, UniProt P27958). The test is classed as in vivo, Drosophila melanogaster. Particulars: adult flies, brains analyzed 6 hours after BILN-2061.
Excerpt: Homozyous transformed lines were established from single progeny of embryos injected with pUAST-HSV-TimeSTAMPt-HA-dCaMKII or pUAST-HSV-TimeSTAMPa-HA-dCaMKII. […] Male homozygotes with third-chromosome insertions were crossed to elav-GAL4; UAS-tubulin-GFP; + females, and the male elavGAL4/Y; UAS-tubulin-GFP/+; HSV-TimeSTAMP-HA-dCaMKII/+ progeny were used for experiments within 2 days post-eclosion.
For experiments involving HSV-TimeSTAMPt-HA-dCaMKII, flies were anesthesized by carbon dioxide, then a hole was punctured in the medial ocellus region using a glass micropipette with a 10 μm bore and a 25 nL drop of 2 mM BILN-2061 in 20% DMSO 5% Cremophor EL in Hank's buffered saline solution (HBSS) was placed over the region. […] For HSV-TimeSTAMPa-HA-dCaMKII, flies were starved for 12 hours with only water, then placed in a vial with an emulsion of 30% (w/v) yeast, 30% (v/v) glycerol, 30% (v/v) water, 5% green food coloring, 5% dimethylformamide, and 500 μM BILN-2061. […] For analysis, flies were decapitated and brains were simultaneously dissected and fixed in HBSS with 4% paraformaldehyde and 0.2% Triton X-100 for 40 minutes at room temperature. Brains were processed for immunocytochemistry by standard methods and imaged on a Zeiss LSM510 or LSM5Live confocal microscope.
Transgenic flies were generated expressing this fusion protein in all neurons.
Test [2] has as its target HCV NS3 protease (Hepatitis C virus genotype 1a, UniProt P27958, T1080A). The test is classed as cell-based. Particulars: TimeSTAMPa; hippocampal neurons 18 DIV, 9 DPT. The text has this: (§1) Hippocampal neurons were dissected from postnatal day 0 or 1 rat pups and cultured in Neurobasal medium supplemented with B27 and glutamine. For immunoblotting experiments, neurons were transfected prior to plating using the Amaxa Nucleofector protocol. For other experiments, neurons were transfected at 7-10 DIV by calcium phosphate.
(§2) To recapitulate endogenous mechanisms of mRNA localization and translation, the 5′ and 3′ untranslated regions of each gene were included in all constructs.

The target in test [3] is HCV NS3 protease (Hepatitis C virus genotype 1a, UniProt P27958). The test is classed as cell-based. Particulars: TimeSTAMPt; hippocampal neurons 18 DIV, 9 DPT.
Excerpt: as §1, §2

Test [4] deals with HCV NS3 protease. The test is classed as cell-based, hepatitis C virus. The following applies: HEK293 cells grown with or without BILN-2061 (0, 1 μM, or 10 μM).
Excerpt: For testing of the drug-regulatable epitope tag concept by immunoblotting, a construct of linear fusions of PSD-95, HCV NS3 protease flanked on both sides by cleavage sites, an HA epitope tag, and the cyan fluorescent protein (CFP) was used.
For each construct, HEK293 cells were transfected with Lipofectamine 2000, grown with or without the NS3 protease inhibitor BILN-2061 (Lamarre et al., 2003), and immunoblotted after boiling/SDS lysis with anti-PSD-95 to differentiate uncleaved and cleaved products by molecular weight.
Experiments using the constructs of the disclosure were performed in transiently transfected mammalian cells by immunoblotting.
Test [5] concerns new protein synthesis in neurons. Briefly: Dependence of TimeSTAMP tag appearance on new protein synthesis in neurons. The test is classed as cell-based, rat. Particulars: for HA-tagged Arc appearing after incubation in 10 μM BILN for 6 hours: Arc-TimeSTAMPa-HA neurons, 7 DIV, simultaneous treatment (cycloheximide 50 μg/mL or BDNF).
Excerpt: as §1, §2

HCV NS3 protease (Hepatitis C virus genotype 1a, UniProt P27958, T1080A), sequence (P27958 1027-1208 T1080A): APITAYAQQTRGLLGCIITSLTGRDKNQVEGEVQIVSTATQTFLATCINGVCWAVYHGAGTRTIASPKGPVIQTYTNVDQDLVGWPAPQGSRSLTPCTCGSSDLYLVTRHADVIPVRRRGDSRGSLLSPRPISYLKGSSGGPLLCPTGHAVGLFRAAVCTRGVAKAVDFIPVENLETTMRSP
HCV NS3 protease (Hepatitis C virus genotype 1a, UniProt P27958), sequence (P27958 1027-1208): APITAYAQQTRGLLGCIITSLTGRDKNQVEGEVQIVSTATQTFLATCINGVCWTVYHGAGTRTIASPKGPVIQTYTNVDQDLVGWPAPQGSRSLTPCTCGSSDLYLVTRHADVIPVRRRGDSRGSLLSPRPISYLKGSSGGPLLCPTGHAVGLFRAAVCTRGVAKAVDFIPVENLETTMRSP
HSV-TimeSTAMPt-HA-dCaMKII, sequence (P27958 1027-1208): as above

Turning to `COc1ccc2c(O[C@@H]3C[C@H]4C(=O)N[C@]5(C(=O)O)C[C@H]5/C=C\CCCCC[C@H](NC(=O)OC5CCCC5)C(=O)N4C3)cc(-c3csc(NC(C)C)n3)nc2c1` [BILN-2061], the “HSV labelling for newly synthesized dCaMKII in fly brain” value in test [1] was “HSV labelling for newly synthesized dCaMKII is present in the mushroom bodies”. Besides, the HA immunofluorescence induction on HCV NS3 protease [2] worked out at 20 fold; on HCV NS3 protease [3], 121 fold. Moreover, in the test on HCV NS3 protease [4], the “Cleavage of constructs containing the NS3 domain alone without NS4A cofactor (immunoblot)” value is reported as “inhibited”.

For the molecule `C[C@@H]1C[C@@H]([C@H](O)CC2CC(=O)NC(=O)C2)C(=O)[C@@H](C)C1` [cycloheximide], in test [5] (50 μg/mL cycloheximide, 18 DIV neurons, 9 DPT), the “Synaptic HA staining of PSD-95-GFP-TimeSTAMPa-HA after 6 hours of BILN-2061” value is reported as “No staining”. Moreover, the “HA-tagged Arc appearing after incubation in 10 μM BILN for 6 hours” value in test [5] is reported as “blocked”.

B1: BDNF: growth factor used for translational induction (protein, UniProt P23560 19-247, looked up)
Neurotrophic factor BDNF …: APMKEANIRGQGGLAYPGVRTHGTLESVNGPKAGSRGLTSLADTFEHVIEELLDEDQKVRPNEENNKDADLYTSRVMLSSQVPLEPPLLFLLEEYKNYLDAANMSMRVRRHSDPARRGELSVCDSISEWVTAADKKTAVDMSGGTVTVLEKVPVSKGQLKQYFYETKCNPMGYTKEGCRGIDKRHWNSQCRTTQSYVRALTMDSKKRIGWRFIRIDTSCVCTLTIKRGR
Take B1: in test [5], the “HA-tagged Arc appearing after incubation in 10 μM BILN for 6 hours” value is on record as “increased”.
